Test results as given in PubChem BioAssay AID504345 (Broad Institute, 2011).
Calls of active or inactive are those of the source.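 Rule for the calls: active = fitted curve climbs past 10% caspase activation, relative to the positive control, at or below the top valid tested dose; inactive = the rest, including activity in the opposite direction.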

Assays:
[1] = test system: MEF A1-2A-BIM cells, caspase 3/7 luminescence; experiment: caspase activation in A1-dependent BIM-primed MEFs, dose response, Bcl2-A1 inhibitor project, cell-based, MEF A1-2A-BIM, luminescence, dry powder, set 2 (AID 504345)
[2] = as above; conditions: MEF A1-2A-BIM cells, caspase 3/7 luminescence; at 35 µM (top of the series)

Row | Structure (SMILES) | AC10 [1] | caspase activation [2]
1 | Cc1ccc(Sc2c([N+](=O)[O-])cnc3ccccc23)cc1 | 8.65 µM | 
2 | Cc1ccc(Sc2cc(=O)n(C)c3ccccc23)cc1 |  | -11.4% (inactive)
3 | Cc1ccc(Sc2c([N+](=O)[O-])c(=O)oc3ccccc23)cc1 |  | -5.88% (inactive)
4 | Cn1c(=O)c([N+](=O)[O-])c(Nc2ccc(Cl)cc2)c2ccccc21 |  | -1.07% (inactive)
5 | Cc1ccc(Nc2c([N+](=O)[O-])c(=O)oc3ccccc23)cc1 |  | 1.97% (inactive)
6 | Cc1ccc(Sc2c([N+](=O)[O-])c(=O)n(C)c3ccccc23)cc1 | 4.06 µM | 
7 | O=C(Oc1cccc(/C=N/Nc2nc(Nc3ccccc3)nc(N3CCOCC3)n2)c1)c1ccco1 |  | 6.44% (inactive)
8 | CN1C(=O)C(C)(C)N(Cc2ccccc2)c2ccccc21 |  | 0.119% (inactive)
9 | Cn1c(=O)c([N+](=O)[O-])c(Oc2ccccc2)c2ccccc21 |  | 4.18% (inactive)
10 | Cc1ccc(Nc2c([N+](=O)[O-])c(=O)n(C)c3ccccc23)cc1 |  | -2.07% (inactive)
11 | CCOC(=O)N1CCN(c2c([N+](=O)[O-])c(=O)n(C)c3ccccc23)CC1 |  | -2.42% (inactive)
12 | O=c1oc2ccccc2c(N2CCCCC2)c1[N+](=O)[O-] |  | -1.93% (inactive)
13 | CCOCCCNc1c([N+](=O)[O-])c(=O)n(C)c2ccccc12 |  | 2.29% (inactive)
14 | O=c1oc2ccccc2c(Sc2ccccc2)c1[N+](=O)[O-] |  | -9.2% (inactive)
15 | O=c1oc2ccccc2c(Nc2cc(Cl)cc(Cl)c2)c1[N+](=O)[O-] |  | -2.92% (inactive)
16 | C/C1=C/C(=O)O[C@@H]2C[C@@H](CC[C@H](C)/C=C\CC1)O[C@@](O)(C1CSC(=O)N1)C2 (stereo partly specified) |  | 9.53% (inactive)
17 | O=c1oc2ccccc2c(Cl)c1[N+](=O)[O-] |  | -8.87% (inactive)
18 | Cn1c(=O)c([N+](=O)[O-])c(Cl)c2ccccc21 | 0.632 µM | 
19 | O=[N+]([O-])c1cnc2ccccc2c1Sc1ccccc1 |  | -2.86% (inactive)
20 | Cn1c(=O)c([N+](=O)[O-])c(-n2cnc3ccccc32)c2ccccc21 | 9.42 µM | 
21 | CCSc1c([N+](=O)[O-])c(=O)oc2ccccc12 |  | -6.49% (inactive)
